Where two headings read alike, the source gives them in different places.
Tests used:
[1] = test system: P. berghei ookinete development; settings: for % inhibition, Replicate A / % inhibition, Replicate B: primary screen at 1 μM
[2] = test system: 3D7-strain P. falciparum asexual parasites; test: P. falciparum asexual growth inhibition assay (Pf GIA); type: cell-based, Plasmodium falciparum; settings: dose response confirmation; read-out: Pf asexual growth inhibition assays IC50
Summary of the method: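 3D7 parasites at 0.25% parasitemia, 2% hematocrit were exposed to compounds in dose response for 72 h at 37°C under 5% CO2, 5% O2. Viability read as parasite LDH activity (nitro blue tetrazolium, A650) after freeze-thaw; inhibition scaled to chloroquine (50 μM) and DMSO controls, mean of three biological replicates.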

HepG2 cells = test: HepG2 cytotoxicity assay; settings: for Pb ODA (this manuscript) HepG2 cytoxicity: HepG2 cytotoxicity listed with the Pb ODA data set (this manuscript); for IC50: read-out: HepG2 cytotoxicity assay IC50, dose response confirmation
Summary of the method: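 HepG2 cells, 2,500 per well in MEM with 10% FBS and 1% NEAA, exposed to compounds for 48 h at 37°C, 5% CO2. Viability read by fluorescence; percent inhibition relative to 50 μM doxorubicin and DMSO controls.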

[3] = read-out: Pb ODA (this manuscript) IC50, P. berghei ookinete development assay, this manuscript
[4] = read-out: Pb Ookinete development assay IC50, dose response confirmation
[5] = read-out: Pb ODA IC50, this manuscript
[6] = unified HepG2 value across the three screens
[7] = HepG2 values of the three screens unified

SMILES	Is compound selective in assay? Pb ODA active? [1]	% inhibition, Replicate A [1] [%]	% inhibition, Replicate B [1] [%]	IC50 [1, 3] [nM]	IC50 [1, 4] [nM]	IC50 [2] [nM]	Pb ODA (this manuscript) HepG2 cytoxicity (HepG2 cells) [µM]	IC50 (HepG2 cells) [nM]	Is compound selective in assay? Pb ODA active? ([1]; 1: YES, 0: NO)	IC50 [1, 5] [nM]	Unified cytotox (HepG2 cells; [6]) [µM]	Unified cytotox (HepG2 cells) [µM]	HepG2 cytoxicity (Pb ODA, this manuscript) (HepG2 cells) [µM]	Unified cytotox (HepG2 cells; [7]) [µM]
Cc1[nH]c(C)c(-c2ccc(OCc3ccc(F)cc3)cc2)c(=O)c1Br [TCMDC-138928]	1 (key: 1: YES; 0: NO)	93.24	106.54	600	595	108	100.00	100000	–	–	–	–	–	–
CCCOc1cc(OCCC)cc(-c2cc(=O)c3ccccc3[nH]2)c1 [TCMDC-138943]	–	86.05	83.39	–	547	76	–	100000	1 (1: YES)	550	100.00	–	–	–
COc1ccc2nc3cc(Cl)ccc3c(NCCN(C)C)c2c1 [TCMDC-139093]	0 (key: 1: YES; 0: NO)	73.14	67.89	–	2200	48	15.85	15800	–	–	–	–	–	–
CN1Cc2cc(NC(=O)/C=C/c3ccccc3Cl)ccc2C(C)(C)C1.Cl [TCMDC-139315]	–	114.62	130.13	–	563	679	–	20400	1 (1: YES)	560	20.42	–	–	–
O=c1cc(NCCCN(Cc2ccccc2)Cc2ccccc2)[nH]c2ccccc12 [TCMDC-139368]	–	31.96	60.20	–	2870	1120	–	33900	1 (1: YES)	2870	33.88	–	–	–
CCOC(=O)[C@H](Cc1cc([N+](=O)[O-])c(Oc2ccc(OC)c(Cc3ccc(OC)c(C(C)C)c3)c2)c([N+](=O)[O-])c1)NC(=O)C(F)(F)F [TCMDC-139398]	–	63.87	33.42	–	4900	9490	–	100000	1 (1: YES)	4900	100.00	–	–	–
Cl.O=c1cc(NCCCNCc2sc(Br)c(Br)c2Br)[nH]c2ccccc12 [TCMDC-139647]	–	55.06	82.69	–	1960	977	–	34700	1 (1: YES)	1960	34.67	–	–	–
Cl.Oc1cc(-c2nc(-c3ccccc3)[nH]c2-c2ccncc2)ccc1Cl [TCMDC-139660]	0 (key: 1: YES; 0: NO)	79.35	69.44	–	1760	1790	–	9770	–	1760	–	9.77	–	–
CC(C)Nc1nc(NC2CCCCC2)nc(N2CCCCCCC2)n1 [TCMDC-139688]	–	67.11	52.41	–	3260	2240	–	33100	1 (1: YES)	–	33.11	–	–	–
COc1cc(NC(=O)Nc2ccc(Br)cc2C(=O)Nc2ccc(Br)cc2)cc(OC)c1OC [TCMDC-139733]	–	44.63	66.05	–	6380	2090	–	100000	1 (1: YES)	6380	100.00	–	–	–
C=C[C@H]1CN(CCCCCCC)CC[C@H]1CC(=O)Nc1cnnc2ccc(OC)cc12.O=C(O)C(=O)O [TCMDC-139791]	–	17.33	54.49	–	2770	276	–	33900	1 (1: YES)	2770	33.88	–	–	–
COc1ccc(Cn2ccc3c4c(N)nc(N)nc4ccc32)cc1 [TCMDC-139862]	–	43.74	74.79	–	315	< 0.2	–	11	0 (0: NO)	320	–	–	0.011	0.011
COc1ccc2nccc([C@@H](O)CN3CCC(NCCOc4cc(C(F)(F)F)ccc4F)CC3)c2c1.O=C(O)C(=O)O [TCMDC-140658]	–	63.44	46.33	–	3210	35	–	3.43	0 (0: NO)	3210	–	–	0.00343	0.00343
COc1ccc2nccc([C@@H](O)CN3CCC(NCCOc4ccc(F)cc4Cl)CC3)c2c1.O=C(O)C(=O)O [TCMDC-140660]	–	30.16	50.20	–	8290	173	–	32400	0 (0: NO)	8290	–	–	32.36	32.36
COc1cc(-c2nc(C(C)(C)CN)[nH]c2-c2ccncc2)ccc1Br.Cl [TCMDC-140674]	1 (key: 1: YES; 0: NO)	75.42	38.48	1320	1320	3120	39.81	39800	–	–	–	–	–	–
COc1cccc(CNCC(C)(C)c2nc(-c3ccc(Cl)c(O)c3)c(-c3ccncc3)[nH]2)c1.Cl [TCMDC-140687]	0 (key: 1: YES; 0: NO)	13.26	51.15	3740	3740	759	5.01	5010	–	–	–	–	–	–
COc1ccc2nccc([C@@H](O)CN3CCC(NCc4cc5ccc(C#N)cc5[nH]4)CC3)c2c1.O=C(O)C(=O)O [TCMDC-140696]	–	54.58	89.62	–	1880	168	–	1550	0 (0: NO)	1880	–	–	1.55	1.55
COc1ccc2nccc([C@@H](O)CN3CCC(NCc4cc5c(F)ccc(F)c5[nH]4)CC3)c2c1.O=C(O)C(=O)O [TCMDC-140739]	–	18.82	50.21	–	2790	98	–	14800	0 (0: NO)	2790	–	–	14.79	14.79
COc1ccc2nccc([C@@H](O)CN3CCC(NC(=O)c4ccc5cc[nH]c5c4)CC3)c2c1.CS(=O)(=O)O [TCMDC-140743]	–	89.95	58.25	–	459	1130	–	100000	1 (1: YES)	460	–	–	–	100.00
COc1ccc2nccc([C@@H](O)CN3CCC(NCc4cc5c(F)ccc(F)c5[nH]4)CC3)c2n1.CS(=O)(=O)O [TCMDC-140749]	0 (key: 1: YES; 0: NO)	52.78	27.90	3270	3270	130	14.13	14100	–	–	–	–	–	–
COc1ccc2nccc([C@@H](O)CN3CCC(NCc4cc5ccccc5nc4O)CC3)c2c1.Cl [TCMDC-140759]	–	50.79	52.50	–	2010	431	–	49000	1 (1: YES)	2010	–	–	48.98	48.98
O=C(NCc1ccco1)c1ccc(CN2CCN(C(c3ccccc3)c3ccccc3)CC2)cc1 [TCMDC-140763]	–	50.96	28.39	–	1480	1260	–	52500	1 (1: YES)	1480	52.48	–	–	–
COc1ccc2nccc([C@@H](O)CN3CCC(NC(=O)c4cc5ccccc5[nH]4)CC3)c2c1.CS(=O)(=O)O [TCMDC-140780]	–	48.77	68.59	–	239	940	–	50700	1 (1: YES)	240	–	–	50.70	50.70
COc1ccc2nccc([C@@H](O)CN3CCC(NC(=O)c4cc5c(F)cc(F)cc5[nH]4)CC3)c2c1.CS(=O)(=O)O [TCMDC-140781]	–	60.81	64.63	–	1000	301	–	11200	1 (1: YES)	1000	–	–	11.22	11.22
